Measurements reported in PubChem BioAssay (NCI).
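Growth conditions: 96-well plates. Treatment: test compound, 48 hours, 5 concentrations. Analysis: linear interpolation between bracketing concentrations; unreached endpoints set to highest concentration. TGI marks complete inhibition of growth.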

Key:
Assay in all cases: NCI-60 cell line screen, 48 h
HCT-116 colon = test system: HCT-116 colon
M14 melanoma = test system: M14 melanoma
SF-539 CNS = test system: SF-539 CNS
NCI-H460 lung = test system: NCI-H460 lung
UACC-257 melanoma = test system: UACC-257 melanoma
SK-MEL-5 melanoma = test system: SK-MEL-5 melanoma
SR leukemia = test system: SR leukemia
UO-31 renal = test system: UO-31 renal
SF-295 CNS = test system: SF-295 CNS
IGROV1 ovarian = test system: IGROV1 ovarian
HL-60(TB) leukemia = test system: HL-60(TB) leukemia
MCF7 breast = test system: MCF7 breast
K-562 leukemia = test system: K-562 leukemia
MOLT-4 leukemia = test system: MOLT-4 leukemia
T-47D breast = test system: T-47D breast
MDA-N = test system: MDA-N
PC-3 prostate = test system: PC-3 prostate
UACC-62 melanoma = test system: UACC-62 melanoma
SNB-19 CNS = test system: SNB-19 CNS
LOX IMVI melanoma = test system: LOX IMVI melanoma
MDA-MB-231 breast = test system: MDA-MB-231 breast
HT29 colon = test system: HT29 colon
HCT-15 colon = test system: HCT-15 colon
A549 NSCLC = test system: A549 NSCLC
SF-268 CNS = test system: SF-268 CNS
OVCAR-3 ovarian = test system: OVCAR-3 ovarian
786-0 renal = test system: 786-0 renal
HCC-2998 colon = test system: HCC-2998 colon
HOP-62 NSCLC = test system: HOP-62 NSCLC
SK-OV-3 ovarian = test system: SK-OV-3 ovarian
HOP-92 NSCLC = test system: HOP-92 NSCLC
OVCAR-5 ovarian = test system: OVCAR-5 ovarian
CCRF-CEM leukemia = test system: CCRF-CEM leukemia
MDA-MB-435 = test system: MDA-MB-435
DU-145 prostate = test system: DU-145 prostate
NCI-H23 lung = test system: NCI-H23 lung
SW-620 colon = test system: SW-620 colon
SK-MEL-28 melanoma = test system: SK-MEL-28 melanoma
COLO 205 colon = test system: COLO 205 colon
EKVX NSCLC = test system: EKVX NSCLC
NCI-H522 lung = test system: NCI-H522 lung
BT-549 breast = test system: BT-549 breast
SN12C renal = test system: SN12C renal
RPMI-8226 leukemia = test system: RPMI-8226 leukemia
KM12 colon = test system: KM12 colon
TK-10 renal = test system: TK-10 renal
OVCAR-4 ovarian = test system: OVCAR-4 ovarian
OVCAR-8 ovarian = test system: OVCAR-8 ovarian
U251 CNS = test system: U251 CNS
NCI/ADR-RES ovarian = test system: NCI/ADR-RES ovarian
SNB-75 CNS = test system: SNB-75 CNS

Measured: TGI

O=C1CSC(c2c[nH]c3ccccc23)N1c1ccccc1[N+](=O)[O-] (stereo not given)
not listed: NCI/ADR-RES ovarian | SNB-75 CNS
> 100 µM: all other assays above

C1CC[C@H]2SSC3CCCC[C@H]3SSC2C1 (stereo not given in full)
> 100 µM: all assays above
